This note sets out measurements from patent publication US11684675B2, “Dimeric collagen hybridizing peptides and methods of using” (University of Utah Research Foundation, priority 2015, dated 2023).

In series [1] the test system is crosslinked gelatin films. Briefly: Retention of CF-labelled CHPs in crosslinked gelatin films (bound at 4° C., washed at 25° C./r.t.). Format: binding, porcine. The note with it: for retention / affinity in gelatin films: 20 μM, preheated 80° C., bound at 4° C., washed at r.t. with PBS, FIG. 6A; for retention in crosslinked gelatin films: Example 3 retention studies. As for the experimental part: (§1) (A) Fraction of peptide remaining in a crosslinked gelatin film after 17 h at 25° C. (10 total washes). Values are normalized to fluorescence remaining in wells after 6 washes at 4° C. (>95% removal of CHPs 9r, 6r, and 5r). All washes performed in 1×PBS. (B) CHPs (15 μM) premixed into 10% porcine gelatin and preheated to 80° C. (10 min) before being added to a 96 well plate. Excess CHP-gelatin mixture was removed, then the premix was incubated at 4° C. for 2 hours. Wells were washed at 4° C., 5 times (>95% removal of CHPs 9r, 6r, and 5r). Wells were then washed for 2 hours (6 washes total) at 25° C. to monitor CHP remaining in the well. (C) Fluorescence of CHPs remaining in crosslinked gelatin after incubation at 37° C. overnight without preheating, followed by washing with 1×PBS at 37° C. (20 h). (D) Fluorescence of CHPs remaining in crosslinked gelatin after incubation at 37° C. overnight (80° C. preheating, 10 min), followed by washing with 1×PBS at 37° C. (20 h).
Binding to Gelatin films. Peptide solutions (20 μM in PBS) were preheated to 80° C. for 10 minutes before being added directly to the crosslinked gelatin films. Peptides were allowed to fully equilibrate with the gel at 4° C. overnight before being exposed to repeated washes (4×30 min) at 4° to fully remove any non-specifically bound peptide. Gelatin wells were then washed at r.t. with PBS (5×1 h, lx 12 h) to measure retention within the gelatin films. […] To eliminate the possibility of these peptides merely becoming physically entrapped within the gelatin after forming triple helix or forming triple helix before binding, binding affinity was verified by producing a premix of the CHPs and Gelatin to eliminated diffusion-limited binding before washing the wells in a similar manner.
Fluorescence Binding: CHP binding to gelatin was monitored by conjugating a fluorescent Carboxyfluorescein (CF) molecule to the N-terminus of each peptide via standard SPPS. Solutions of the fluorescent peptides were heated to 80° C. for 5 min before injecting 50 μL onto a pre-prepared EDC-crosslinked thin gelatin film in a 96 well plate. Peptides incubated overnight at 4° C., then washed with repeated rounds of 4° C. 1×PBS followed by 25° C. 1×PBS.

Series [2] is described as follows: Triple helix melting point (Tm) by circular dichroism at 225 nm. Format: physicochemical. The settings on record: triple helix melting. The protocol:
FIGS. 5A, 5B, 5C, and 5D show the thermal denaturation of fully assembled CHPs and subsequent cooling to initial temperature. Samples were heated at 1° C./min from their initial temperature final temperature of 90° C. Sample was then cooled at 1° C./min to the starting temperature. (A) Thermal denaturation and partial reassembly of CHP CF-6d (150 μM) monitored at 225 nm. Sample was measured from 4° C. to 90° C. (B) Thermal denaturation and partial reassembly of CHP […] (75 μM, corresponding to 150 μM strand concentration) monitored at 225 nm. Sample was measured from 4° C. to 90° C. (C) Thermal denaturation and partial reassembly of CHP CF-9 (150 μM) monitored at 225 nm. Sample was measured from 10° C. to 90° C. (D) Thermal denaturation and partial reassembly of CHP CF-9d (75 μM, corresponding to 150 μM strand concentration) monitored at 225 nm. Sample was measured from 10° C. to 90° C.
FIGS. 11A and 11B show the First Derivative of mean residue ellipticity (MRE) at 225 nm in CD. […] There is no significant change in melting point between the monomeric and dimeric forms of the same peptide.
Circular Dichroism: Circular Dichroism (CD) was measured for all peptides at 225 nm. Melting curves were taken on peptides between 10 and 80° C. at a heating rate of 0.5° C./min, with pauses at each 1° C. Refolding experiments were performed after peptide solutions were incubated at 4° C. for at least 12 hours. Concentrations were normalized to strand concentration.
A general note: Circular dichroism is the unequal absorption of left and right circularly polarised light.

Series [3] deals with crosslinked gelatin films. Briefly: Binding of CF-labelled CHPs to crosslinked gelatin films at 37° C. with and without preheating. Details: species or system porcine. As for the experimental part:
FIGS. 3A and 3B show the affinity of CHPs to gelatin films as monitored by fluorescence of conjugated CF fluorophore (492 ex, 533 em). (A) Fluorescence of CHPs bound to crosslinked gelatin after incubation at 37° C. overnight with no workup. (B) Fluorescence of CHPs remaining in crosslinked gelatin after incubation at 37° C. overnight without preheating, followed by washing with 1×PBS at 37° C. (20 h).
as §1
Dimeric CHPs were assessed for their ability to bind to collagen strands in crosslinked gelatin films. CHP solutions (20 μM in PBS) were added directly to the crosslinked gelatin films. For heated experiments, CHPs were preheated to 80° C. for 10 minutes before addition. Peptides were allowed to fully equilibrate with the gel at 37° C. overnight before being exposed to repeated washes (4×, PBS) at 37° C. to fully remove any non-specifically bound peptide and to determine binding level at body temperature. To measure retention, peptides were bound as previously described, but were subsequently washed with PBS 37° C. (5×1 h, 1×12 h) to measure retention within the gelatin films. […] Additionally, after a period of 20 hours, higher level of the dimeric CHP remained in the gelatin compared to the monomeric CHP.
A major limitation of the use of CHP in vivo, is the requirement of the triple helix to be fully disassembled before being injected. […] For this test, peptide solutions were allowed to warm to room temperature before being added (50 μL, 20 μM) to previously prepared crosslinked gelatin films. Solutions were then incubated at 37° C. overnight before removing the solution. Wells were washed at 37° C. with PBS (20 h) to determine binding. Preheated samples were prepared and incubated in the same way, but with preheating (80° C., 10 min) before being added to the crosslinked gelatin wells.

Non-standard residues stand in square brackets, D forms with d. No end group written: not given here. Hyp = O=C(O)[C@@H]1C[C@@H](O)CN1; CF = carboxyfluorescein label

As to “CF-G3-(GPO6) (GGGGPPGPPGPPGPPGPPGPP; carboxyfluorescein label; collagen hybridizing peptide; (6)..(6) Proline is hydroxyproline; (9)..(9) Proline is hydroxyproline; (12)..(12) Proline is hydroxyproline; (15)..(15) Proline is hydroxyproline; (18)..(18) Proline is hydroxyproline; (21)..(21) Proline is hydroxyproline) [CF-6]”, the “retention / affinity in gelatin films” value in series [1] is “almost entirely washed out of the gelatin films”. Moreover, the “Tm (° C.)” value in series [2] (Table 1) and in series [2] (Table 2) was 37 (SEQ ID NO: 60) ° C throughout.
Turning to “[(GPO)5G3)2KG (GP[Hyp]GP[Hyp]GP[Hyp]GP[Hyp]GP[Hyp]GGGKGGG[Hyp]PG[Hyp]PG[Hyp]PG[Hyp]PG[Hyp]PG; not fully specified (C-terminus); also: lysine-branched dimer: K19 is branch point carrying two arms and a third (C-terminal) Gly, residues 20-37 are the second arm written in reverse order) [5d]”, in series [2] (Table 2), the “Tm (° C.)” value was 27 (SEQ ID NO: 68) ° C.
As for (GPO)5 [compound 5, reference compound], the “binding to gelatin wells at 37° C. without preheating” value in series [3] (20 μM, 37° C. overnight, PBS wash 20 h, FIG. 6C) is given as “do not have a strong enough affinity to the gelatin to bind effectively at physiologic temperature”. For the same substance, the “Tm (° C.)” value in series [2] (Table 2) was 27 (SEQ ID NO: 67) ° C.
Regarding [(GPO)9G3)2KG3K^Biotin [b-9d], the “Tm (° C.)” value in series [2] (Table 2) was 68 (SEQ ID NO: 62) ° C.
For the substance [(CF-G3GPO)6G3)2KG [CF-6d], the “more peptide remaining after 20 hours of wash” value in series [3] (37° C., non-preheated, vs currently utilized CHP, FIG. 17) was 50%. The “higher initial binding to the gelatin substrate” value in series [3] (non-preheated, vs currently utilized CHP, FIG. 17) worked out at 350%. For the same substance, in series [1], the “retention / affinity in gelatin films” value is “comparable affinity to that of the GPO9 monomer (CF-9) and GPO9 dimer (CF-9d)”; the “retention in crosslinked gelatin films” value is given as 66%. The “Tm (° C.)” value in series [2] (Table 1) is 50 (SEQ ID NO: 63) ° C. In addition, the “Tm (° C.)” value in series [2] (Table 2) is recorded as 50 (SEQ ID NO: 63) ° C.
On to [(GPO)6G3)2KG3K^Biotin [b-6d], for which the “Tm (° C.)” value in series [2] (Table 2) was 37 (SEQ ID NO: 65) ° C.
For [(CF-Ahx-GPO)9G3)2KG [CF-9d], the “Tm (° C.)” value in series [2] (Table 1) was 73 (SEQ ID NO: 55 °C; in series [2] (Table 2), 73 (SEQ ID NO: 55 w/label) ° C.
Consider “CF-G3-(GPO5) (GGGGPPGPPGPPGPPGPP; carboxyfluorescein label; collagen hybridizing peptide; (6)..(6) Proline is hydroxyproline; (9)..(9) Proline is hydroxyproline; (12)..(12) Proline is hydroxyproline; (15)..(15) Proline is hydroxyproline; (18)..(18) Proline is hydroxyproline) [CF-5, reference compound]”, for which the “retention / affinity in gelatin films” value in series [1] was “almost entirely washed out of the gelatin films”. Further, the “Tm (° C.)” value in series [2] (Table 2) is 28 (SEQ ID NO: 69) ° C.
Consider CF-G3-(GPO9) [CF-9], for which the “retention in crosslinked gelatin films” value in series [1] was 58%. For the same substance, the “Tm (° C.)” value in series [2] (Table 1) and in series [2] (Table 2) was 69 (SEQ ID NO: 57) ° C each time.
Regarding (GPO)9-G3K^Biotin [b-9], the “Tm (° C.)” value in series [2] (Table 2) is listed as 68 (SEQ ID NO: 61) ° C.
Turning to “[(CF-G3GPO)5G3)2KG ({CF}-GGGGP[Hyp]GP[Hyp]GP[Hyp]GP[Hyp]GP[Hyp]GGGKGGG[Hyp]PG[Hyp]PG[Hyp]PG[Hyp]PG[Hyp]PGGGG; not fully specified (C-terminus); also: lysine-branched dimer: K22 is the branch point, second arm (23-43) is written reversed, its N-terminus at position 43 carries CF) [CF-5d]”, the “retention / affinity in gelatin films” value in series [1] is “higher affinity to the gelatin films than CF-6”. Moreover, in series [2] (Table 2), the “Tm (° C.)” value was 28 (SEQ ID NO: 70) ° C.
In the case of (GPO)6-G3K^Biotin [b-6], the “Tm (° C.)” value in series [2] (Table 2) was 36 (SEQ ID NO: 64) ° C.
